Patent publication US20260184693A1, “INHIBITORS OF SOLUTE CARRIER FAMILY 6A MEMBER 19 (SLC6A19) AND METHODS OF USE THEREOF” (Maze Therapeutics, Inc., priority 2022, published 2026)
pIC50: −log10 of the molar value.

Each compound was assayed against T1, human SLC6A19 (Homo sapiens, UniProt Q695T7) (assay: Example B-1: L-[3H]leucine uptake, liquid scintillation, in CHO cells with doxycycline-inducible expression of human SLC6A19 and TMEM27). Details: read-out: SLC6A19_Radioligand Uptake Assay IC50.
T1 construct: expressed in transfected cells
T1 sequence (Q695T7 1-634): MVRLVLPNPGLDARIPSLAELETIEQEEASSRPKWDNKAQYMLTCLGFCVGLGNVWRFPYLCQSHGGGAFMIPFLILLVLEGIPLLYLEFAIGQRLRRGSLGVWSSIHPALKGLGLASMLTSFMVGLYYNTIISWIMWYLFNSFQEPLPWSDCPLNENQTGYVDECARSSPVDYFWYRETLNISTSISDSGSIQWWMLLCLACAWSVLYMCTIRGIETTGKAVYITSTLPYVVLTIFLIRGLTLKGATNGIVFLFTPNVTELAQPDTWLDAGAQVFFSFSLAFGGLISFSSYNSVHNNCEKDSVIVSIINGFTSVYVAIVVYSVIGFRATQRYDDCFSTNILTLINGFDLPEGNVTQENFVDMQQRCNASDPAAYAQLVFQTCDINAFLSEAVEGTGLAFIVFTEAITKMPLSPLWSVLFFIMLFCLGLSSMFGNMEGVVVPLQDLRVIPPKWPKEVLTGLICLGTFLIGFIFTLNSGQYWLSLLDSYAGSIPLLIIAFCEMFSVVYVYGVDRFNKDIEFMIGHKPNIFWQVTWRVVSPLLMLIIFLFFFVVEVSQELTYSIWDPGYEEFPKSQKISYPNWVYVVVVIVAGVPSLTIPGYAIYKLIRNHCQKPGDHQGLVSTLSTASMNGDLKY
T1 sequence (Q9HBJ8 15-222 partner): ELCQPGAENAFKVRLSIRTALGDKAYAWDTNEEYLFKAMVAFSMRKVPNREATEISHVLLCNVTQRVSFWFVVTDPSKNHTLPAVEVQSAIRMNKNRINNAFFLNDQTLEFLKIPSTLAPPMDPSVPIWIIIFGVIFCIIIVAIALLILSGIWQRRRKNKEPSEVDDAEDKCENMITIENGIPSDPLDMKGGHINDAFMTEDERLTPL
Format: cell-based
Description: CHO cells with doxycycline-inducible expression of human SLC6A19 and TMEM27 were maintained in T150 cell culture treated flasks using cell culture media, which consisted of 1×DMEM/F12 (Gibco, 11330057), 10% Tet System-Approved FBS (Gibco, A4736401), 100 U/mL Penicillin-Streptomycin (Gibco, 15140122), 1×GlutaMAX™ Supplement (Gibco, 35050061), 1 mM Sodium Pyruvate (Gibco, 11360070), 1.1 mg/mL Sodium Bicarbonate (Gibco, 25080094), 5 μg/mL Blasticidin (InvivoGen, ant-bl-1), 150 μg/mL Hygromycin B Gold (InvivoGen, ant-hg-5), and 500 μg/mL G418 (Sigma-Aldrich, G8168-100 mL). In preparation for the assay, this media was aspirated and 5 mL of TryμLE™ Express Enzyme (Gibco, 12605010) was added to each flask to initiate cell dissociation. The flasks were then incubated (humidified, 37° C. with 5% CO2) for 2 minutes. After incubation, 10 mL of pre-warmed cell culture media was added to each flask. The cell suspension was collected and centrifuged for 5 minutes at 200xg.
The supernatant was aspirated and the pellet was resuspended in 5 mL pre-warmed cell culture media. The resuspended cells were counted using the Countess Cell Counting Chamber (Invitrogen) and the cell concentration of the suspension was readjusted to 1 million live cells/mL using pre-warmed cell culture media. 25 uL/well (25,000 cells/well) of readjusted cell suspension was dispensed into Poly-D-Lysine 384-well white/clear plates (Corning, 354660) using a MultiDrop Combi (Thermo Electron Corp). To induce expression of Human SLC6A19 and TMEM27, 25 uL/well of cell culture media containing 2 μg/mL doxycycline was added to the first 23 columns of each plate resulting in a final concentration of […] doxycycline. 25 μL/well of cell culture media was added to the last column of each plate, to act as negative control wells for Human SLC6A19 and TMEM27 expression. Assay plates were then incubated (humidified, 37° C. with 5% CO2) for 18 hours. After incubation, the media was aspirated and the wells were washed 4 times with pre-warmed HBSS (Sigma-Aldrich, H8264-1L) using an Apricot S-Pipette S2 (Apricot Designs), such that 5 uL/well HBSS was remaining at the end of each wash. […] At this step, the final in-well DMSO concentration in the assay plate is 0.5%. All compounds were plated in a duplicate 8-point dilution series that consisted of 3-fold dilutions. […] Afterwards, 15 uL/well of 3.2 mM hot:cold leucine solution (1:15000 ratio of L-[3,4,5-3H(N)] Leucine (Perkin Elmer, NET460001MC) to L-Leucine (Sigma-Aldrich, L8912-25G) diluted with HBSS (Sigma-Aldrich, H8264-1L)) was added using the Viaflo 384 (Integra), for a final concentration of 1.6 mM hot:cold leucine solution. The plates were then incubated (humidified, 37° C. with 5% CO2) for 20 minutes to conduct the uptake reaction. Immediately after the incubation, the plates were washed 4 times with HBSS (Sigma-Aldrich, H8264-1L) using the ELx405 Microplate Washer (Biotek) to terminate the uptake reaction. After the washes, 50 uL/well Ultima Gold Scintillation Cocktail (Perkin Elmer, 6013326) was added to each well using the Viaflo 384 (Integra). The plates were then incubated (humidified, 37° C. with 5% CO2) on a plate shaker at 200 rpm for 2 hours. After incubation, the plates were removed from the shaker and kept at room temperature for 15 minutes.
Liquid scintillation analysis was performed using the MicroBeta2 Microplate Counter (Perkin Elmer). Activity (%) was derived by normalizing the average of positive control compound treated wells to 0% and the average of DMSO (negative control) wells to 100%. Collaborative Drug Discovery software was used for graphing data.

Structure (SMILES) | pIC50
CN(C(=O)NCc1cc2cc(Cl)ccc2[nH]1)[C@@H]1CCCN(C(=O)c2cc(F)ccn2)C1 [Compound 111, (R)-3-((5-chloro-1H-indol-2-yl)methyl)-1-(1-(4-fluoropicolinoyl)piperidin-3-yl)-1-methylurea] | 5.88
CN(C(=O)NCc1cc2cc(Cl)ccc2[nH]1)[C@@H]1CCCN(C(=O)c2ccc(F)cn2)C1 [Compound 114, (R)-3-((5-chloro-1H-indol-2-yl)methyl)-1-(1-(5-fluoropicolinoyl)piperidin-3-yl)-1-methylurea] | 6.07
CN(C(=O)NCc1cc2cc(Cl)ccc2[nH]1)[C@@H]1CCCN(C(=O)c2cc(F)n(C)n2)C1 [Compound 115, (R)-3-((5-chloro-1H-indol-2-yl)methyl)-1-(1-(5-fluoro-1-methyl-1H-pyrazole-3-carbonyl)piperidin-3-yl)-1-methylurea] | 6.16
CN(C(=O)NCc1cc2cc(Cl)ccc2[nH]1)[C@@H]1CCCN(C(=O)C2(C)CCC2)C1 [Compound 118, (R)-3-((5-chloro-1H-indol-2-yl)methyl)-1-methyl-1-(1-(1-methylcyclobutane-1-carbonyl)piperidin-3-yl)urea] | 5.79
CN(C(=O)NCc1cc2cc(Cl)ccc2[nH]1)[C@@H]1CCCN(C(=O)Cn2cc(CCN)nn2)C1 [Compound 134, (R)-1-(1-(2-(4-(2-aminoethyl)-1H-1,2,3-triazol-1-yl)acetyl)piperidin-3-yl)-3-((5-chloro-1H-indol-2-yl)methyl)-1-methylurea] | 5.42
CC(=O)N1CCC[C@@H](N(C)C(=O)NCCc2cc(-c3cc4ccccc4[nH]3)c(Cl)cc2Cl)C1 [Compound 207, (R)-1-(1-acetylpiperidin-3-yl)-3-(2,4-dichloro-5-(1H-indol-2-yl)phenethyl)-1-methylurea] | 6.15
CN(C(=O)NCc1cc2cc(Cl)ccc2[nH]1)[C@@H]1CCCN(C(=O)NCC(F)(F)F)C1 [Compound 210, (R)-3-(3-((5-chloro-1H-indol-2-yl)methyl)-1-methylureido)-N-(2,2,2-trifluoroethyl)piperidine-1-carboxamide] | 6.05
CN(C(=O)NCc1cc2cc(Cl)ccc2[nH]1)[C@@H]1CCCN(C(=O)NC2CCC2)C1 [Compound 211, (R)-3-(3-((5-chloro-1H-indol-2-yl)methyl)-1-methylureido)-N-cyclobutylpiperidine-1-carboxamide] | 5.87
CC(C)NC(=O)N1CCC[C@@H](N(C)C(=O)NCc2cc3cc(Cl)ccc3[nH]2)C1 [Compound 213, (R)-3-(3-((5-chloro-1H-indol-2-yl)methyl)-1-methylureido)-N-isopropylpiperidine-1-carboxamide] | 6.09
CC(=O)N1CCC[C@@H](N(C)C(=O)NCc2cc3ccc(C)cc3[nH]2)C1 [Compound 214, (R)-1-(1-acetylpiperidin-3-yl)-1-methyl-3-((6-methyl-1H-indol-2-yl)methyl)urea] | 5.89
CN(C(=O)NCc1cc2cc(Cl)ccc2[nH]1)[C@@H]1CCCN(C(=O)N2CC(F)(F)C2)C1 [Compound 216, (R)-3-((5-chloro-1H-indol-2-yl)methyl)-1-(1-(3,3-difluoroazetidine-1-carbonyl)piperidin-3-yl)-1-methylurea] | 6.09

The next compounds have a higher pIC50 than those just listed; values first:

pIC50 | Structure (SMILES)
6.20 | CN(C(=O)NCc1cc2cc(Cl)ccc2[nH]1)[C@@H]1CCCN(C(=O)CCO)C1 [Compound 215, (R)-3-((5-chloro-1H-indol-2-yl)methyl)-1-(1-(3-hydroxypropanoyl)piperidin-3-yl)-1-methylurea]
6.22 | CC1CC(C(=O)N2CCC[C@@H](N(C)C(=O)NCc3cc4cc(Cl)ccc4[nH]3)C2)C1 (stereo partly drawn) [Compound 117, (R)-3-((5-chloro-1H-indol-2-yl)methyl)-1-methyl-1-(1-(3-methylcyclobutane-1-carbonyl)piperidin-3-yl)urea]
6.25 | CC(=O)N1C[C@H](N(C)C(=O)NCc2cc3cc(Cl)ccc3[nH]2)CC[C@@H]1C (single isomer, unassigned) [Compound 192, 1-((3R,6S or 3S,6R)-1-acetyl-6-methylpiperidin-3-yl)-3-((5-chloro-1H-indol-2-yl)methyl)-1-methylurea]
6.29 | CN(C(=O)NCc1cc2cc(Cl)ccc2[nH]1)[C@@H]1CCCN(C(=O)C2CCO2)C1 (stereo partly drawn) [Compound 116, 3-((5-chloro-1H-indol-2-yl)methyl)-1-methyl-1-((3R)-1-(oxetane-2-carbonyl)piperidin-3-yl)urea]
6.31 | CN(C(=O)NCc1cc2cc(Cl)ccc2[nH]1)[C@@H]1CCCN(C(=O)c2nn(C)cc2F)C1 [Compound 113, (R)-3-((5-chloro-1H-indol-2-yl)methyl)-1-(1-(4-fluoro-1-methyl-1H-pyrazole-3-carbonyl)piperidin-3-yl)-1-methylurea]
6.35 | CN(C(=O)NCc1cc2cc(Cl)ccc2[nH]1)[C@@H]1CCCN(C(=O)Cc2cnco2)C1 [Compound 205, (R)-3-((5-chloro-1H-indol-2-yl)methyl)-1-methyl-1-(1-(2-(oxazol-5-yl)acetyl)piperidin-3-yl)urea]
6.36 | CC(=O)N1CCC[C@@H](N(C)C(=O)NCCc2ccc(Cl)c(-c3cc4ccccc4[nH]3)c2)C1 [Compound 206, (R)-1-(1-acetylpiperidin-3-yl)-3-(4-chloro-3-(1H-indol-2-yl)phenethyl)-1-methylurea]
6.38 | CN(C)C(=O)N1CCC[C@@H](N(C)C(=O)NCc2cc3cc(Cl)ccc3[nH]2)C1 [Compound 208, (R)-3-(3-((5-chloro-1H-indol-2-yl)methyl)-1-methylureido)-N,N-dimethylpiperidine-1-carboxamide]
6.44 | CN(C(=O)NCc1cc2cc(Cl)ccc2[nH]1)[C@@H]1CCCN(C(=O)C2CCOC2)C1 (stereo partly drawn) [Compound 112, 3-((5-chloro-1H-indol-2-yl)methyl)-1-methyl-1-((3R)-1-(tetrahydrofuran-3-carbonyl)piperidin-3-yl)urea]
6.59 | CC(=O)N1CCC[C@@H](N(C)C(=O)NCc2cc3cc(C(F)(F)F)ccc3[nH]2)C1 [Compound 212, (R)-1-(1-acetylpiperidin-3-yl)-1-methyl-3-((5-(trifluoromethyl)-1H-indol-2-yl)methyl)urea]
6.90 | CCNC(=O)N1CCC[C@@H](N(C)C(=O)NCc2cc3cc(Cl)ccc3[nH]2)C1 [Compound 209, (R)-3-(3-((5-chloro-1H-indol-2-yl)methyl)-1-methylureido)-N-ethylpiperidine-1-carboxamide]
